The record followed here is patent publication US12441726B2, “Compounds and uses thereof” (Foghorn Therapeutics Inc., priority 2020, dated 2025).

The structures appear in SMILES notation. pIC50: −log10 of the molar value. A value given as a limit tells only on which side of the number the result lay.

Chain of BRM (P51531 whole entry): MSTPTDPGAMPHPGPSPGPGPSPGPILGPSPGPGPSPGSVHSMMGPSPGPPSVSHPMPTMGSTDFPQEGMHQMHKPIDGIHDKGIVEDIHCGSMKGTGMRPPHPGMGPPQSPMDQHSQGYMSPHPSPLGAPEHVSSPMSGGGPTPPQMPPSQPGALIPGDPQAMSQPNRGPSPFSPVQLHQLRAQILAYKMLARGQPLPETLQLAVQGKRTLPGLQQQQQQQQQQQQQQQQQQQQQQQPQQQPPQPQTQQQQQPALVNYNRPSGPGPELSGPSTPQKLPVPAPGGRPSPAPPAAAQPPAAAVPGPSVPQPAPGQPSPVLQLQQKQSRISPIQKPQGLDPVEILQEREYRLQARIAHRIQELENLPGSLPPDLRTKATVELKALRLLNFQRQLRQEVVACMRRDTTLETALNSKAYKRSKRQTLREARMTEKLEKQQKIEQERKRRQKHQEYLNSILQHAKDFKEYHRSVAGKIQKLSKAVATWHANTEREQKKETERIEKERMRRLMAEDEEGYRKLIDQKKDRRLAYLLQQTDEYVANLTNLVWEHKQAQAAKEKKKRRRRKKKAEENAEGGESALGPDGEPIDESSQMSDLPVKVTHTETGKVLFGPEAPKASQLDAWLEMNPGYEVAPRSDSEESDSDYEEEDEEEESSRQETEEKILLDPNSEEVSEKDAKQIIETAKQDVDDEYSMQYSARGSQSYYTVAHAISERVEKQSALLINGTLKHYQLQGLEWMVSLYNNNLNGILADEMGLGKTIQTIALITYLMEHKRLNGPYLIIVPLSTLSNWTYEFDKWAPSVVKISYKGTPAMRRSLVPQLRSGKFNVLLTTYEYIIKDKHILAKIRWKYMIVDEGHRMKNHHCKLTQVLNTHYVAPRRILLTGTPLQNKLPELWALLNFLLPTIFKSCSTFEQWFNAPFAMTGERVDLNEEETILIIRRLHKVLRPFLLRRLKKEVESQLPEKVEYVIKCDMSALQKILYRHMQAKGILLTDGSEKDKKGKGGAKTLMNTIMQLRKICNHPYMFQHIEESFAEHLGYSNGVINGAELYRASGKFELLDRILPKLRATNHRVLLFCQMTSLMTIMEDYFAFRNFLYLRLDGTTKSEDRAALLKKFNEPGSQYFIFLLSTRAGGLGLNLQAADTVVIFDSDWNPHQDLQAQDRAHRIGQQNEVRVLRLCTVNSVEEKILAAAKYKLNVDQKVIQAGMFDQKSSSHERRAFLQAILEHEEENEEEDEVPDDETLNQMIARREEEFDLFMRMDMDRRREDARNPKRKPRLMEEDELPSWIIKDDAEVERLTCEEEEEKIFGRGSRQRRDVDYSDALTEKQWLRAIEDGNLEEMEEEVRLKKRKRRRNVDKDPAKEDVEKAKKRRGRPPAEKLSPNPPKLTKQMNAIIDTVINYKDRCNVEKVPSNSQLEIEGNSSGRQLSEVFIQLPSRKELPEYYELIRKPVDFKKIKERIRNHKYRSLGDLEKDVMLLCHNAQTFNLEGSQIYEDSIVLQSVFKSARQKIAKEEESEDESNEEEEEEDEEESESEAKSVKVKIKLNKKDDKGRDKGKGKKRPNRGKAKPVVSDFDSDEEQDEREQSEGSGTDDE

The first experiment has as its target BRM (Homo sapiens, UniProt P51531). Nature of the experiment: ATPase catalytic activity assay (ADP-Glo), BRM. Conditions: 30 nM BRM, 400 μM ATP. On the technique in general: ADP-Glo turns the ADP formed in a reaction into a luminescent signal.
Turning to `C[C@]1(F)CCCc2ncc(C(=O)NCc3cc4nc(-c5cncc(C6CC6)n5)ccc4cn3)cc21` [Compound 252], the “BRM Max % Inhibition” value was found to be 87%.

With `C[C@@]1(CO)COCc2ccc(C(=O)NCc3cc4nc(-c5ccccc5)ccc4cn3)cc21` [Compound 109], the “BRM Max % Inhibition” value turned out to be 75%.

On to `C[C@@]1(C#N)COCc2ccc(C(=O)NCc3cc(N4Cc5ccncc5C4)ccn3)cc21` [Compound 53], for which the “BRM Max % Inhibition” value amounted to 88%.

Regarding `Cc1c(-c2ccc3cnc(CNC(=O)c4ccc5c(c4)[C@](C)(C#N)COC5)cc3n2)cnn1C1COC1` [Compound 187], the “BRM Max % Inhibition” value worked out at 88%.

In the case of `C[C@@H]1CN(c2cccc([C@H]3C[C@@H](c4ccnc(CNC(=O)c5ccc6c(c5)[C@](C)(C#N)COC6)c4)C3)n2)C[C@H](C)O1` [Compound 82], the “BRM Max % Inhibition” value is reported as 88%.

Take `C[C@@]1(C#N)COCc2ccc(C(=O)NCc3cc4nc(-c5ccnc(N6CC7(COC7)C6)n5)ccc4cn3)cc21` [Compound 403]: the “BRM Max % Inhibition” value turned out to be 99%.

Regarding `COc1ccc([C@H]2C[C@H](c3ccnc(CNC(=O)c4ccc5c(c4)[C@](C)(C#N)COC5)c3)C2)cc1` [Compound 72], the “BRM Max % Inhibition” value is 94%.

Turning to `CCc1cc2c(-c3ccc4cnc(CNC(=O)c5ccc6c(c5)[C@](C)(C#N)COC6)cc4n3)cccc2n1C` [Compound 134], the “BRM Max % Inhibition” value is given as 101%.

Regarding `C[C@@]1(C#N)COCc2ccc(C(=O)NCc3cc4c(cn3)CCN(c3ccc(=O)n(C5CC5)n3)C4)cc21` [Compound 230], the “BRM Max % Inhibition” value is 97%.

Consider `Cn1cc(-c2nc3cc(CNC(=O)c4ccc5c(c4)[C@](C)(C#N)COC5)ncc3s2)cn1` [Compound 289], for which the “BRM Max % Inhibition” value is given as 90%.

Consider `CN(C)C(=O)c1cccc(-c2ccc3cnc(CNC(=O)c4ccc5c(c4)[C@](C)(C#N)COC5)cc3n2)n1` [Compound 464], for which the “BRM Max % Inhibition” value was 88%.

In the case of `C[C@@]1(C#N)COCc2ccc(C(=O)NCc3cc4nc(-c5ccc(N6CCC6)nc5)ccc4cn3)cc21` [Compound 456], the “BRM Max % Inhibition” value is given as 95%.

Turning to `COCCNC(=O)c1ccc(-c2ccc3cnc(CNC(=O)c4ccc5c(c4)[C@](C)(C#N)COC5)cc3n2)cc1` [Compound 323], the “BRM Max % Inhibition” value is 108%.

`CO[C@H]1CCN(c2cncc(-c3ccc4cnc(CNC(=O)c5ccc6c(c5)[C@](C)(F)COC6)cc4c3)n2)C1` [Compound 265]: the “BRM Max % Inhibition” value is listed as 104%.

On to `C[C@@]1(C#N)COCc2ccc(C(=O)NCc3cc4nc(N5CCN(C6CCC6)C5=O)ccc4cn3)cc21` [Compound 313], for which the “BRM Max % Inhibition” value stood at 92%.

Consider `Cn1ccc2c(-c3ccc4cnc(CNC(=O)c5ccc6c(c5)[C@](C)(C#N)COC6)cc4n3)cc(F)cc21` [Compound 171], for which the “BRM Max % Inhibition” value came out at 98%.

For the compound `C[C@@]1(C#N)CCNc2ccc(C(=O)NCc3cc4nc(-c5ccccc5)ccc4cn3)cc21` [Compound 116], the “BRM Max % Inhibition” value is 76%.

The experiment is the same for the next values; noted with them: BRM ATPase: IC50 (uM), 30 nM BRM, 400 μM ATP.
Broadly, the IC50 is the concentration that gives 50% inhibition. A higher IC50 goes with weaker potency in that assay. `C[C@]1(F)CCCc2ncc(C(=O)NCc3cc4nc(-c5cncc(C6CC6)n5)ccc4cn3)cc21` [Compound 252] showed a concentration for half-maximal inhibition (IC50) of 0.1 to 0.5 µM.

On to `C[C@@]1(CO)COCc2ccc(C(=O)NCc3cc4nc(-c5ccccc5)ccc4cn3)cc21` [Compound 109], for which the IC50 was > 1 µM.

With `C[C@@]1(C#N)COCc2ccc(C(=O)NCc3cc(N4Cc5ccncc5C4)ccn3)cc21` [Compound 53], the IC50 was 0.1 to 0.5 µM.

Compound `Cc1c(-c2ccc3cnc(CNC(=O)c4ccc5c(c4)[C@](C)(C#N)COC5)cc3n2)cnn1C1COC1` [Compound 187] showed a half-inhibitory concentration (IC50) of 0.1 to 0.5 µM.

The compound `C[C@@H]1CN(c2cccc([C@H]3C[C@@H](c4ccnc(CNC(=O)c5ccc6c(c5)[C@](C)(C#N)COC6)c4)C3)n2)C[C@H](C)O1` [Compound 82] registered a concentration for half-maximal inhibition (IC50) of 0.1 to 0.5 µM.

On to `C[C@@]1(C#N)COCc2ccc(C(=O)NCc3cc4nc(-c5ccnc(N6CC7(COC7)C6)n5)ccc4cn3)cc21` [Compound 403], for which the IC50 is < 0.1 µM.

In the case of `COc1ccc([C@H]2C[C@H](c3ccnc(CNC(=O)c4ccc5c(c4)[C@](C)(C#N)COC5)c3)C2)cc1` [Compound 72], the IC50 is < 0.1 µM.

Turning to `CCc1cc2c(-c3ccc4cnc(CNC(=O)c5ccc6c(c5)[C@](C)(C#N)COC6)cc4n3)cccc2n1C` [Compound 134], the IC50 was < 0.1 µM.

In turn, `C[C@@]1(C#N)COCc2ccc(C(=O)NCc3cc4c(cn3)CCN(c3ccc(=O)n(C5CC5)n3)C4)cc21` [Compound 230] displayed a 50% inhibitory concentration (IC50) of 0.1 to 0.5 µM.

In turn, `Cn1cc(-c2nc3cc(CNC(=O)c4ccc5c(c4)[C@](C)(C#N)COC5)ncc3s2)cn1` [Compound 289] returned an IC50 of 0.1 to 0.5 µM.

`CN(C)C(=O)c1cccc(-c2ccc3cnc(CNC(=O)c4ccc5c(c4)[C@](C)(C#N)COC5)cc3n2)n1` [Compound 464]: the IC50 was in the range of 0.1 to 0.5 µM.

As for `C[C@@]1(C#N)COCc2ccc(C(=O)NCc3cc4nc(-c5ccc(N6CCC6)nc5)ccc4cn3)cc21` [Compound 456], the IC50 fell in the range of 0.1 to 0.5 µM.

`COCCNC(=O)c1ccc(-c2ccc3cnc(CNC(=O)c4ccc5c(c4)[C@](C)(C#N)COC5)cc3n2)cc1` [Compound 323]: the IC50 fell in the range of 0.1 to 0.5 µM.

In the case of `CO[C@H]1CCN(c2cncc(-c3ccc4cnc(CNC(=O)c5ccc6c(c5)[C@](C)(F)COC6)cc4c3)n2)C1` [Compound 265], the IC50 was < 0.1 µM.

For the compound `C[C@@]1(C#N)COCc2ccc(C(=O)NCc3cc4nc(N5CCN(C6CCC6)C5=O)ccc4cn3)cc21` [Compound 313], the IC50 lay within 0.1 to 0.5 µM.

Turning to `Cn1ccc2c(-c3ccc4cnc(CNC(=O)c5ccc6c(c5)[C@](C)(C#N)COC6)cc4n3)cc(F)cc21` [Compound 171], the IC50 is < 0.1 µM.

`C[C@@]1(C#N)CCNc2ccc(C(=O)NCc3cc4nc(-c5ccccc5)ccc4cn3)cc21` [Compound 116]: the IC50 is > 1 µM.

The next experiment deals with BRG-1 (Homo sapiens, UniProt P51532). Nature of the experiment: ATPase catalytic activity assay (ADP-Glo), BRG-1.
Chain of BRG-1 (P51532 whole entry): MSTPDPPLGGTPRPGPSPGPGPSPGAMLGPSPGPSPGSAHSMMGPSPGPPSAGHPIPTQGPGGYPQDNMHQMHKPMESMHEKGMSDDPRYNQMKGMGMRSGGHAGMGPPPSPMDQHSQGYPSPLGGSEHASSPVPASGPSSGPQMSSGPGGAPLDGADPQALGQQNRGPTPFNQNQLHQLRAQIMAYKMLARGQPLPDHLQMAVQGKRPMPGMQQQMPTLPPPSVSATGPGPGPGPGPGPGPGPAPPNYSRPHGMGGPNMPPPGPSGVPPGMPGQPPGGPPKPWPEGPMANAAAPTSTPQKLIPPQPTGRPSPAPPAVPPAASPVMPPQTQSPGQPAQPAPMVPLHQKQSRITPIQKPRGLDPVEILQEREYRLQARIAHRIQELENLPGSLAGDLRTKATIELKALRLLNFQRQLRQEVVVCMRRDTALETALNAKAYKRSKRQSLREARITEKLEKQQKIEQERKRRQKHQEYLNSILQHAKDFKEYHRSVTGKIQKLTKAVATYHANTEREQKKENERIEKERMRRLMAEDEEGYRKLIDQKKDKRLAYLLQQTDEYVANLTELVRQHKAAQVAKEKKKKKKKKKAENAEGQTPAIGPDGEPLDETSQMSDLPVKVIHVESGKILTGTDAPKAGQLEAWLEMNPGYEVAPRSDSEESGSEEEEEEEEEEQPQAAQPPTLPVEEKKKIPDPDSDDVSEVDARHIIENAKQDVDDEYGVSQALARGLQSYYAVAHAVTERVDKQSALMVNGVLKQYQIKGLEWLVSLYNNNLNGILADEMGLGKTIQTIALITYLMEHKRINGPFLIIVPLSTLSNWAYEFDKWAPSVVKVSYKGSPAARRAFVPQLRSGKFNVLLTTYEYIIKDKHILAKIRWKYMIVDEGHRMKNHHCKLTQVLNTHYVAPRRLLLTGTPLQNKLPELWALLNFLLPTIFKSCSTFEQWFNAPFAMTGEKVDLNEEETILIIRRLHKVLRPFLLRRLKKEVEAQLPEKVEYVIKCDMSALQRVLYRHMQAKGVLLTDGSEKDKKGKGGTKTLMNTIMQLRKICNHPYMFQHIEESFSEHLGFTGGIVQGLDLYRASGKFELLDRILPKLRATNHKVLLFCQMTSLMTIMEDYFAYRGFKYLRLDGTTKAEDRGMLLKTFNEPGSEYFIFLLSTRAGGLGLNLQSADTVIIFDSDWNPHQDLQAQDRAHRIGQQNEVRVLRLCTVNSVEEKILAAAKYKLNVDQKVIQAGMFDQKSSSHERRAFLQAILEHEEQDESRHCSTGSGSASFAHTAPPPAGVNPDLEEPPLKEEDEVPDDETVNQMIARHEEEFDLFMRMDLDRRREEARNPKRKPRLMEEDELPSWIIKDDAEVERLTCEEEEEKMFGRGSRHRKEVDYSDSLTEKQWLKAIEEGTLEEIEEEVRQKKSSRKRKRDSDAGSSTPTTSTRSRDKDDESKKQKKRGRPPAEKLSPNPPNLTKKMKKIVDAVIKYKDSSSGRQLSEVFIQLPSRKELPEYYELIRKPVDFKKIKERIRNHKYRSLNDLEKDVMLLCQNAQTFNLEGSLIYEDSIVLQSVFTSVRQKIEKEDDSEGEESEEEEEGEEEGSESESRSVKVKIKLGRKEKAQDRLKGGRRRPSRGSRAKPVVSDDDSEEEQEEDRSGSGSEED
Conditions: not given
The pIC50 is −log10 of the IC50, conventionally taken in molar units. As for `C[C@]1(F)CCCc2ncc(C(=O)NCc3cc4nc(-c5cncc(C6CC6)n5)ccc4cn3)cc21` [Compound 252], the pIC50 is < 6.00.

Turning to `C[C@@]1(CO)COCc2ccc(C(=O)NCc3cc4nc(-c5ccccc5)ccc4cn3)cc21` [Compound 109], the pIC50 is < 6.00.

Turning to `C[C@@]1(C#N)COCc2ccc(C(=O)NCc3cc(N4Cc5ccncc5C4)ccn3)cc21` [Compound 53], the negative logarithm of the IC50 (pIC50) was < 6.00.

`Cc1c(-c2ccc3cnc(CNC(=O)c4ccc5c(c4)[C@](C)(C#N)COC5)cc3n2)cnn1C1COC1` [Compound 187]: the pIC50 was < 6.00.

Take `C[C@@H]1CN(c2cccc([C@H]3C[C@@H](c4ccnc(CNC(=O)c5ccc6c(c5)[C@](C)(C#N)COC6)c4)C3)n2)C[C@H](C)O1` [Compound 82]: the pIC50 was < 6.00.

With `C[C@@]1(C#N)COCc2ccc(C(=O)NCc3cc4nc(-c5ccnc(N6CC7(COC7)C6)n5)ccc4cn3)cc21` [Compound 403], the pIC50 is 6.30 to 7.00.

With `COc1ccc([C@H]2C[C@H](c3ccnc(CNC(=O)c4ccc5c(c4)[C@](C)(C#N)COC5)c3)C2)cc1` [Compound 72], the pIC50 is 6.30 to 7.00.

On to `CCc1cc2c(-c3ccc4cnc(CNC(=O)c5ccc6c(c5)[C@](C)(C#N)COC6)cc4n3)cccc2n1C` [Compound 134], for which the pIC50 was > 7.00.

`C[C@@]1(C#N)COCc2ccc(C(=O)NCc3cc4c(cn3)CCN(c3ccc(=O)n(C5CC5)n3)C4)cc21` [Compound 230] had a pIC50 of 6.00 to 6.30.

For `Cn1cc(-c2nc3cc(CNC(=O)c4ccc5c(c4)[C@](C)(C#N)COC5)ncc3s2)cn1` [Compound 289], the pIC50 was < 6.00.

Regarding `CN(C)C(=O)c1cccc(-c2ccc3cnc(CNC(=O)c4ccc5c(c4)[C@](C)(C#N)COC5)cc3n2)n1` [Compound 464], the pIC50 was < 6.00.

In turn, `C[C@@]1(C#N)COCc2ccc(C(=O)NCc3cc4nc(-c5ccc(N6CCC6)nc5)ccc4cn3)cc21` [Compound 456] had a negative-log IC50 (pIC50) of 6.00 to 6.30.

Compound `COCCNC(=O)c1ccc(-c2ccc3cnc(CNC(=O)c4ccc5c(c4)[C@](C)(C#N)COC5)cc3n2)cc1` [Compound 323] gave a pIC50 of 6.00 to 6.30.

Consider `CO[C@H]1CCN(c2cncc(-c3ccc4cnc(CNC(=O)c5ccc6c(c5)[C@](C)(F)COC6)cc4c3)n2)C1` [Compound 265], for which the negative-log IC50 (pIC50) is > 7.00.

`C[C@@]1(C#N)COCc2ccc(C(=O)NCc3cc4nc(N5CCN(C6CCC6)C5=O)ccc4cn3)cc21` [Compound 313] had a pIC50 of 6.00 to 6.30.

Regarding `Cn1ccc2c(-c3ccc4cnc(CNC(=O)c5ccc6c(c5)[C@](C)(C#N)COC6)cc4n3)cc(F)cc21` [Compound 171], the negative logarithm of the IC50 (pIC50) is 6.30 to 7.00.

`C[C@@]1(C#N)CCNc2ccc(C(=O)NCc3cc4nc(-c5ccccc5)ccc4cn3)cc21` [Compound 116]: the negative logarithm of the IC50 (pIC50) is < 6.00.

Staying with this experiment, now noted: 1 h, read-out: BRG1 Max % Inhibition, ADP-Glo, 30 nM BRG-1, 400 μM ATP.
In the case of `C[C@]1(F)CCCc2ncc(C(=O)NCc3cc4nc(-c5cncc(C6CC6)n5)ccc4cn3)cc21` [Compound 252], the Emax came out at 33%.

Consider `C[C@@]1(CO)COCc2ccc(C(=O)NCc3cc4nc(-c5ccccc5)ccc4cn3)cc21` [Compound 109], for which the Emax is 11%.

`C[C@@]1(C#N)COCc2ccc(C(=O)NCc3cc(N4Cc5ccncc5C4)ccn3)cc21` [Compound 53]: the Emax is 48%.

`Cc1c(-c2ccc3cnc(CNC(=O)c4ccc5c(c4)[C@](C)(C#N)COC5)cc3n2)cnn1C1COC1` [Compound 187]: the Emax was 42%.

For the compound `C[C@@H]1CN(c2cccc([C@H]3C[C@@H](c4ccnc(CNC(=O)c5ccc6c(c5)[C@](C)(C#N)COC6)c4)C3)n2)C[C@H](C)O1` [Compound 82], the Emax turned out to be 38%.

Consider `C[C@@]1(C#N)COCc2ccc(C(=O)NCc3cc4nc(-c5ccnc(N6CC7(COC7)C6)n5)ccc4cn3)cc21` [Compound 403], for which the Emax was 91%.

In the case of `COc1ccc([C@H]2C[C@H](c3ccnc(CNC(=O)c4ccc5c(c4)[C@](C)(C#N)COC5)c3)C2)cc1` [Compound 72], the Emax worked out at 91%.

As for `CCc1cc2c(-c3ccc4cnc(CNC(=O)c5ccc6c(c5)[C@](C)(C#N)COC6)cc4n3)cccc2n1C` [Compound 134], the Emax came to 97%.

For the compound `C[C@@]1(C#N)COCc2ccc(C(=O)NCc3cc4c(cn3)CCN(c3ccc(=O)n(C5CC5)n3)C4)cc21` [Compound 230], the Emax came out at 62%.

For the compound `Cn1cc(-c2nc3cc(CNC(=O)c4ccc5c(c4)[C@](C)(C#N)COC5)ncc3s2)cn1` [Compound 289], the Emax amounted to 41%.

Turning to `CN(C)C(=O)c1cccc(-c2ccc3cnc(CNC(=O)c4ccc5c(c4)[C@](C)(C#N)COC5)cc3n2)n1` [Compound 464], the Emax amounted to 48%.

Regarding `C[C@@]1(C#N)COCc2ccc(C(=O)NCc3cc4nc(-c5ccc(N6CCC6)nc5)ccc4cn3)cc21` [Compound 456], the Emax was 80%.

In the case of `COCCNC(=O)c1ccc(-c2ccc3cnc(CNC(=O)c4ccc5c(c4)[C@](C)(C#N)COC5)cc3n2)cc1` [Compound 323], the Emax stood at 76%.

Turning to `CO[C@H]1CCN(c2cncc(-c3ccc4cnc(CNC(=O)c5ccc6c(c5)[C@](C)(F)COC6)cc4c3)n2)C1` [Compound 265], the Emax was 99%.

In the case of `C[C@@]1(C#N)COCc2ccc(C(=O)NCc3cc4nc(N5CCN(C6CCC6)C5=O)ccc4cn3)cc21` [Compound 313], the Emax worked out at 72%.

Take `Cn1ccc2c(-c3ccc4cnc(CNC(=O)c5ccc6c(c5)[C@](C)(C#N)COC6)cc4n3)cc(F)cc21` [Compound 171]: the Emax amounted to 92%.

Consider `C[C@@]1(C#N)CCNc2ccc(C(=O)NCc3cc4nc(-c5ccccc5)ccc4cn3)cc21` [Compound 116], for which the Emax worked out at 22%.
